Measured values: publication PMC6767220, “Active Anti-Inflammatory and Hypolipidemic Derivatives of Lorazepam” (Molecules, 2019)
Where two headings read alike, the source gives them in different places.

Key:
inflammation [1] = tested on: inflammation; parameters: method as in PMID 25792646; settings: cited from earlier work
inflammation [2] = settings: cited from earlier work
soybean lipoxygenase-1 = biological target: T1, soybean lipoxygenase-1 (Glycine max, UniProt P08170); experiment: Inhibition of soybean lipoxygenase; type: biochemical; settings: sodium linoleate 0.1 mM, 7 min incubation; read-out: Lipoxygenase IC50
T1 sequence (P08170 1-839): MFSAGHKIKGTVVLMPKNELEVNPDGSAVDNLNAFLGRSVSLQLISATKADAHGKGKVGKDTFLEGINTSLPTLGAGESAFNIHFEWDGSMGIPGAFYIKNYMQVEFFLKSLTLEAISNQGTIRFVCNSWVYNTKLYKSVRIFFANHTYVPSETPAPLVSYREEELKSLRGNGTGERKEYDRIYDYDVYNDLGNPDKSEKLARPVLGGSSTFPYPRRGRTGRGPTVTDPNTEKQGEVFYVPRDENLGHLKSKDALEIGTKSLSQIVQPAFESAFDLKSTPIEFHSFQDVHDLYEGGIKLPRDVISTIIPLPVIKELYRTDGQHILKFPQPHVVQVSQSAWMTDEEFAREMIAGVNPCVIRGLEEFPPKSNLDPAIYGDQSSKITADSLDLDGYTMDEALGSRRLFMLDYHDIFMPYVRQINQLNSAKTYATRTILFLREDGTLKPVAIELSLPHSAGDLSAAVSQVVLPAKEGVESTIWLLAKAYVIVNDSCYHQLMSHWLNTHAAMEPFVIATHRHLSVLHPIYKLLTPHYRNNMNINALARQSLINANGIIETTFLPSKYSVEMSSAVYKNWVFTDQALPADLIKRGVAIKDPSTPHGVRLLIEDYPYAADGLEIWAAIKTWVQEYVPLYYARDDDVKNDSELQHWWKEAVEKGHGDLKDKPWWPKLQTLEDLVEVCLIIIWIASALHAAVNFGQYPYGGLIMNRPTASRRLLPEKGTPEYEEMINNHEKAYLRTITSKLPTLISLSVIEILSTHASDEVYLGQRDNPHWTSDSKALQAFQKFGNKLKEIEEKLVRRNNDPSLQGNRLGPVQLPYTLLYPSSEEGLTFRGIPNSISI
Experimental: The reaction mixture contained the test compounds dissolved in ethanol and soybean lipoxygenase (250 U/mL) in Tris buffer (pH 9). The reaction was initiated by the addition of sodium linoleate (0.1 mM) and monitored for 7 min at 28 °C, by recording the absorbance of a conjugated diene structure at 234 nm. For the estimation of the type of inhibition, the above experiments were repeated, using sodium linoleate at 1 mM, which is higher than the saturating substrate concentration.

[3] = Interaction with the stable radical DPPH; settings: DPPH 200 µΜ, 30 min incubation
Experimental: Compounds (in absolute ethanol, final concentration 50–200 µM) were added to an equal volume of an ethanolic solution of DPPH (final concentration 200 µM) at room temperature (22 ± 2 °C). Absorbance (517 nm) was recorded after 30 min [22].

[4] = tested on: rat hepatic microsomal membrane lipid peroxidation; experiment: Inhibition of rat hepatic microsomal membrane lipid peroxidation induced by ferrous ascorbate; type: biochemical; settings: rat hepatic microsomal fraction, ferrous ascorbate, 45 min incubation
Experimental: The incubation mixture contained heat-inactivated rat hepatic microsomal fraction, ascorbic acid (0.2 mM) in Tris–HCl/KCl buffer (pH 7.4) and the test compounds dissolved in dimethylsulphoxide. The reaction was initiated by FeSO4 (10 µM) and the mixture was incubated at 37 °C. Aliquots were taken at various time intervals for 45 min. Lipid peroxidation was assessed spectrophotometrically (535 against 600 nm) by the determination of 2-thiobarbituric acid (TBA) reactive material.

[5] = tested on: carrageenan-induced rat paw oedema; experiment: Carrageenan-induced rat paw oedema; type: in vivo; settings: ip, i.p. 0.15 mmol/kg, 3.5 h post administration, vs controls, read-out: % Oedema Reduction
Experimental: An aqueous solution of carrageenan was prepared (1% w/v) and 0.1 mL of this was injected i.d. into the right hind paw of female rats; the left paw served as control. The tested compounds (suspended in water with a few drops of Tween 80) were given intra peritoneally (i.p.) (0.15 mmol/kg) 5 min prior to the carrageenan injection. After 3.5 h the hind paws were weighed separately. The produced oedema was estimated as paw weight increase.

[6] = tested on: Triton WR1339 (tyloxapol) induced hyperlipidemia; experiment: Triton WR1339 (tyloxapol) induced hyperlipidemia: plasma TC, TG, LDL-C; type: in vivo; settings: ip, rat plasma, 24 h, tyloxapol 200 mg/kg i.p.; for inhibition in vivo at 50 µmol/kg: dose i.p. 50 µmol/kg; for inhibition in vivo at 150 µmol/kg: dose i.p. 150 µmol/kg
[7] = read-out: % Reduction LDL-C (LDL cholesterol)
[8] = read-out: % Reduction TC (total cholesterol)
[9] = read-out: % Reduction TG (triglycerides)

SMILES	Anti-inflammatory action in vitro (inflammation [1])	Anti-inflammatory action in vivo (inflammation [2])	IC50 (soybean lipoxygenase-1) [µM]	Percent Interaction with DPPH ([3]; compound 50 µΜ) [%]	Percent Interaction with DPPH ([3]; compound 100 µΜ) [%]	Percent Interaction with DPPH ([3]; compound 200 µΜ) [%]	IC50 [4] [µM]	inhibition in vivo at 150 µmol/kg [5] [%]	inhibition in vivo at 50 µmol/kg [6, 7] [%]	inhibition in vivo at 50 µmol/kg [6, 8] [%]	inhibition in vivo at 50 µmol/kg [6, 9] [%]	inhibition in vivo at 150 µmol/kg [6, 7] [%]	inhibition in vivo at 150 µmol/kg [6, 8] [%]	inhibition in vivo at 150 µmol/kg [6, 9] [%]	melting point [°C]	Anti-inflammatory action (inflammation [2]; at similar doses)
Cc1cc(C(C)(C)C)c(O)c(C(C)(C)C)c1 [BHT, 2,6-di-tert-butyl-4-methylphenol]	lacks such action	lacks such action	192													
CC(C)(C)c1cc(C=CC(=O)OC2N=C(c3ccccc3Cl)c3cc(Cl)ccc3NC2=O)cc(C(C)(C)C)c1O (centres unmarked) [Compound 8, (E)-7-Chloro-5-(2-chlorophenyl)-2-oxo-2,3-dihydro-1H-benzo[e][1,4]diazepin-3-yl 3-(3,5-di-tert-butyl-4-hydroxyphenyl)acrylate]			44	30	49	90	> 100	37	44	59	52	63	81	66	274	
O=C(O)CCCC[C@@H]1CCSS1 [lipoic acid, (R)-5-(1,2-dithiolan-3-yl)pentanoic acid]																weak anti-inflammatory agent
